We go through 17 molecules from ChEMBL document CHEMBL5291721, “A preclinical secondary pharmacology resource illuminates target-adverse drug reaction associations of marketed drugs” (Nat Commun, 2023).

Experiment [1] deals with Histamine H1 receptor (Homo sapiens, UniProt P35367).
Experiment [2] addresses T1, Muscarinic acetylcholine receptor M1 (Homo sapiens, UniProt P11229).
T1 sequence (P11229 whole entry): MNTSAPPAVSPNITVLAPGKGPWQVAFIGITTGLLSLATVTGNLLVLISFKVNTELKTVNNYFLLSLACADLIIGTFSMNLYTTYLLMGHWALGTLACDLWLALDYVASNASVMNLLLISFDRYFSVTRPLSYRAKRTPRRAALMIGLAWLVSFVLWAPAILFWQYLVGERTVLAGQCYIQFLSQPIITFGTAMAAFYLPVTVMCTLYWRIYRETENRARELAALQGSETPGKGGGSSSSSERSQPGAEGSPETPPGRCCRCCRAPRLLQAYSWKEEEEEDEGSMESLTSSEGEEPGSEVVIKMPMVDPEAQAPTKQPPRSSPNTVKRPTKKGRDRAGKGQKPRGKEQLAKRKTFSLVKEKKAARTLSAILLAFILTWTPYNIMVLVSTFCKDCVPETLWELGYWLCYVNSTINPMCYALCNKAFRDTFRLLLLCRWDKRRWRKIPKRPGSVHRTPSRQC
The experiment is classed as functional.

For experiment [3], the target named is Muscarinic acetylcholine receptor M3 (Homo sapiens, UniProt P20309).
Experiment [4] has as its target T2, Mu-type opioid receptor (Homo sapiens, UniProt P35372). As to the kind of experiment: biochemical. Format: functional.
Experiment [5] deals with T3, 5-hydroxytryptamine receptor 1A (Homo sapiens, UniProt P08908).
T3 sequence (P08908 whole entry): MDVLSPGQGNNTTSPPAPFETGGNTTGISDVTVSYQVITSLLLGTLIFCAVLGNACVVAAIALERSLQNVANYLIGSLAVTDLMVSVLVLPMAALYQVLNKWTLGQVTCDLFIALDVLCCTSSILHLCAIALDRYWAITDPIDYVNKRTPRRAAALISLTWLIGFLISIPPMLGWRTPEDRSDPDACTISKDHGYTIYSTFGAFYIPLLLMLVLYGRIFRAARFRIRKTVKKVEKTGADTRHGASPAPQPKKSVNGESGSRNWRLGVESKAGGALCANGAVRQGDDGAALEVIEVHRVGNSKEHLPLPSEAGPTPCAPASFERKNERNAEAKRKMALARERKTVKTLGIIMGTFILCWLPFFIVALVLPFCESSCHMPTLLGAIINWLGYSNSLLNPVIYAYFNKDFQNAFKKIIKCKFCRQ
The experiment is classed as functional, cell-based.

Experiment [6] addresses Beta-2 adrenergic receptor (Homo sapiens, UniProt P07550). Format: functional, cell-based.
Experiment [7] deals with T4, Alpha-2B adrenergic receptor (Homo sapiens, UniProt P18089).
T4 sequence (P18089 whole entry): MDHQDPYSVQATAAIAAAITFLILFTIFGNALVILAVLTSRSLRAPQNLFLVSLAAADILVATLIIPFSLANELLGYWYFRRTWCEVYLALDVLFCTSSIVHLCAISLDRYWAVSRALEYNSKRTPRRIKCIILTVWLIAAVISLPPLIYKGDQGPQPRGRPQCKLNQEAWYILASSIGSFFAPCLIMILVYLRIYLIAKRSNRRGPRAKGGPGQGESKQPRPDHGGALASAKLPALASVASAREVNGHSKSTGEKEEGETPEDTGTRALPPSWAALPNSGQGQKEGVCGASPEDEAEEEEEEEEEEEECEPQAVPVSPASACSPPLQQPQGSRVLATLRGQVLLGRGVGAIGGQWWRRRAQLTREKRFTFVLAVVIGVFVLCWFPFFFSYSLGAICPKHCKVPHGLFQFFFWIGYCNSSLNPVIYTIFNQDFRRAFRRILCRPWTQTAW

The target in experiment [8] is Cannabinoid receptor 1 (Homo sapiens, UniProt P21554). The experiment is classed as functional, cell-based.
In experiment [9] the target is T5, Alpha-1A adrenergic receptor (Homo sapiens, UniProt P35348).
T5 sequence (P35348 whole entry): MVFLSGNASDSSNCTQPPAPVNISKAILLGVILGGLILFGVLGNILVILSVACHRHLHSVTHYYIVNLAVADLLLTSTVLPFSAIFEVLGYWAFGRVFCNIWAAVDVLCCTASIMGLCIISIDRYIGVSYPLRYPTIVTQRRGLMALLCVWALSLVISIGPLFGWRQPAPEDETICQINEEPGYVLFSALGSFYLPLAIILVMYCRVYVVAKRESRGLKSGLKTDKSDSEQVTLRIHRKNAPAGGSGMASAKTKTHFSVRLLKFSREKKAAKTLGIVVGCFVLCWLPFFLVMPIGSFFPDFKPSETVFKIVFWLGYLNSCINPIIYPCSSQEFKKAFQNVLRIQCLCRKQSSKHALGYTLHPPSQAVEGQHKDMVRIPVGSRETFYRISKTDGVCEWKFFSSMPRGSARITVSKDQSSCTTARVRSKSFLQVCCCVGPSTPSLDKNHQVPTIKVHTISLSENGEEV

The target in experiment [10] is Melanocortin receptor 4 (Homo sapiens, UniProt P32245).
The target of experiment [11] is T2, Mu-type opioid receptor.
Experiment [12] deals with T5, Alpha-1A adrenergic receptor. The experiment is classed as functional, cell-based.
Further: assay procedure not described here.

Cannabinoid receptor 1, sequence (P21554 whole entry): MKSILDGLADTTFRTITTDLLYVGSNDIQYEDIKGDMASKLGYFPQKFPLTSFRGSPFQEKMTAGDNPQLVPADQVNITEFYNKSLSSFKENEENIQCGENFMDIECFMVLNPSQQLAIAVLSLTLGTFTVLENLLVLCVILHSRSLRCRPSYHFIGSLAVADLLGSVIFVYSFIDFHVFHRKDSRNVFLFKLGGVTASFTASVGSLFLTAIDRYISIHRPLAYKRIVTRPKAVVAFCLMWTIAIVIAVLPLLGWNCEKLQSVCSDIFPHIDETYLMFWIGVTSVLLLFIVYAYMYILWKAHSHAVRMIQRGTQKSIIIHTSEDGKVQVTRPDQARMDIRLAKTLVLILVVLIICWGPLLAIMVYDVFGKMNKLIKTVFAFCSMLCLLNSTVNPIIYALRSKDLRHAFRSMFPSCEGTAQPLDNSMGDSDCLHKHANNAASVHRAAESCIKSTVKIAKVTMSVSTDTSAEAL
Histamine H1 receptor, sequence (P35367 whole entry): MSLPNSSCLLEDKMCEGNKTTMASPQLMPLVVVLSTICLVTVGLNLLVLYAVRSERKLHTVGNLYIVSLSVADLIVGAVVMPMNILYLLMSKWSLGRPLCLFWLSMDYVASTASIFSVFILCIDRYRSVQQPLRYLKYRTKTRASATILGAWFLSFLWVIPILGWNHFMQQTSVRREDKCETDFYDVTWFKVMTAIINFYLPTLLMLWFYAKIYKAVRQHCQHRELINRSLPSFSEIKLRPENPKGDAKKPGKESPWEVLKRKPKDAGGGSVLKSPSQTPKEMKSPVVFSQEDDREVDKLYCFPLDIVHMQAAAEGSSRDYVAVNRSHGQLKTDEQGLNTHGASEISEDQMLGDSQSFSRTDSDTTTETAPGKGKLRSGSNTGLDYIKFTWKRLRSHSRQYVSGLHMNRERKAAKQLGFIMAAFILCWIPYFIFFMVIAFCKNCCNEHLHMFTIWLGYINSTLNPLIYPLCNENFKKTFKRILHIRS
T2 sequence (P35372 whole entry): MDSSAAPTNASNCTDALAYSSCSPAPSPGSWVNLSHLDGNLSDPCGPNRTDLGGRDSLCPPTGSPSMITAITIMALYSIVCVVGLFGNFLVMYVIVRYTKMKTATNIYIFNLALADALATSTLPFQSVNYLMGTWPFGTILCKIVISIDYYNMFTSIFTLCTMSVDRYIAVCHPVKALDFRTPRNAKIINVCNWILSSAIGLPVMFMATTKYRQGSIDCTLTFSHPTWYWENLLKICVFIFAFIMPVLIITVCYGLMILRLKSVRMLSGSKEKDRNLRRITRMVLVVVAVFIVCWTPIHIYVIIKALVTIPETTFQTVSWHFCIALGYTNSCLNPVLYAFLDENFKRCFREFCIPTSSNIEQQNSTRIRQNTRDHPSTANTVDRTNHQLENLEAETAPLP
Beta-2 adrenergic receptor, sequence (P07550 whole entry): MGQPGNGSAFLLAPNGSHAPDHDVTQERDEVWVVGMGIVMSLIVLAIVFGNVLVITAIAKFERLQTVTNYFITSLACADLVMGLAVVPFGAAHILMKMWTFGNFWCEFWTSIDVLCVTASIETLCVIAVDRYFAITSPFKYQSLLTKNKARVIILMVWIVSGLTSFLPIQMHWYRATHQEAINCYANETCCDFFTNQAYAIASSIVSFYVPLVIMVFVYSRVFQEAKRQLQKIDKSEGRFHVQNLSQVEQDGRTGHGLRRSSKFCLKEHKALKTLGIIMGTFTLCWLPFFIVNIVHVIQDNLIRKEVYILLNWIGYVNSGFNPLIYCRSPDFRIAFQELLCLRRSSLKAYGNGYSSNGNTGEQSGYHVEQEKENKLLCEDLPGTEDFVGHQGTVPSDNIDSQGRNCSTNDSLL
Muscarinic acetylcholine receptor M3, sequence (P20309 whole entry): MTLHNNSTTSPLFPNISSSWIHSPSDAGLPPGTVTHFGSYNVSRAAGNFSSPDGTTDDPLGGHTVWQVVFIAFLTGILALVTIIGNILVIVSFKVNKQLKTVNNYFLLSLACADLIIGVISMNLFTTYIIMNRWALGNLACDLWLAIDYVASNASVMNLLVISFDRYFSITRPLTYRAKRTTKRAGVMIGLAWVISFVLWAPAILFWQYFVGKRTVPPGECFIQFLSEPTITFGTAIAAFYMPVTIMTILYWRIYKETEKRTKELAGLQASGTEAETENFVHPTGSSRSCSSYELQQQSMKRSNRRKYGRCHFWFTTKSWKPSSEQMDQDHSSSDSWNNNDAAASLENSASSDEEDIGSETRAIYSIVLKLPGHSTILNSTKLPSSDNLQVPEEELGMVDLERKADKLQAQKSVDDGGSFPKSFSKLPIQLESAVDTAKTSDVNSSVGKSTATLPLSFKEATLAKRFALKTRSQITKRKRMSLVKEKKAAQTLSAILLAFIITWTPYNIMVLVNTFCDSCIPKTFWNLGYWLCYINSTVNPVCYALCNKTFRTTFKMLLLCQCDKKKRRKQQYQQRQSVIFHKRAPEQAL
Melanocortin receptor 4, sequence (P32245 whole entry): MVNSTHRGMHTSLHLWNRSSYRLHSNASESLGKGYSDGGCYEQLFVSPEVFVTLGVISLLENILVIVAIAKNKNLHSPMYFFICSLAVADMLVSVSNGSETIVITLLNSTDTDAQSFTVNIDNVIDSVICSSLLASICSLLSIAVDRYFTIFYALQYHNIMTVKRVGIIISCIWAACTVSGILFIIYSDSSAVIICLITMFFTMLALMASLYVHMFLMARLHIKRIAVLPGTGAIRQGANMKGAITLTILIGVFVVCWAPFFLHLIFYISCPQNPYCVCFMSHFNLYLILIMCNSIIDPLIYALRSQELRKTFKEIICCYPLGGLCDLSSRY

For orientation: AC50 means the concentration giving half of the maximal activity seen. The low end stands for greater potency, the high end for weaker potency. Consider `COc1cc(C(=O)OCc2cccc(COC(=O)c3cc(OC)c(OC)c(OC)c3)n2)cc(OC)c1OC` [PIROZADIL], for which the AC50 in experiment [1], in experiment [2], in experiment [3], in [4], in [5] and in experiment [6] was more than 30 µM throughout. The AC50 in experiment [7] and in experiment [8] was more than 30 µM in each case.
Turning to `C=CCN1CCc2nc(N)sc2CC1` [TALIPEXOLE], the concentration at half-maximal activity (AC50) was 28 µM in [1]; more than 30 µM in [2]; more than 30 µM in experiment [3]; more than 30 µM in [4]; more than 30 µM in experiment [5]; more than 30 µM in experiment [6]. Besides, the half-maximal activity concentration (AC50) in experiment [8] and in [9] was more than 30 µM throughout.
As for `CCOC(=O)C(C)(C)Oc1ccc(Cl)cc1` [CLOFIBRATE], the concentration at half-maximal activity (AC50) in [5] is more than 10 µM; in experiment [10], more than 30 µM; in [6], more than 30 µM; in experiment [11] it was more than 30 µM; in experiment [8] it was more than 30 µM; in [12], more than 30 µM. In [9], this molecule showed an AC50 of more than 10 µM.
Take `CC(C)N(CCCCOCC(=O)O)c1cnc(-c2ccccc2)c(-c2ccccc2)n1`: the concentration at half-maximal activity (AC50) in experiment [1], in experiment [2], in [3], in experiment [4], in experiment [5] and in experiment [6] was more than 30 µM in each case. The AC50 in experiment [7], in [8], in experiment [12] and in experiment [9] was more than 30 µM in each case.
For `c1ccc(C2(N3CCCCC3)CCCCC2)cc1` [PHENCYCLIDINE], the half-maximal activity concentration (AC50) in [1], in experiment [2], in experiment [3], in experiment [4], in experiment [5] and in experiment [6] was more than 30 µM each time. Besides, the half-maximal activity concentration (AC50) in experiment [8] and in experiment [12] was more than 30 µM in each case.
For the molecule `O=C(NCCO[N+](=O)[O-])c1cccnc1` [NICORANDIL], the half-maximal activity concentration (AC50) in experiment [1], in experiment [2], in experiment [3], in experiment [4], in experiment [6] and in [7] was more than 30 µM throughout. Besides, the AC50 in experiment [8] and in experiment [12] was more than 30 µM throughout.
As for `CO[C@H]1C[C@H](O[C@H]2CC[C@@]3(C)[C@H](CC[C@@H]4[C@@H]3CC[C@]3(C)[C@@H](C5=CC(=O)OC5)[C@@H](OC(C)=O)C[C@]43O)C2)O[C@@H](C)[C@@H]1O` [OLEANDRIN], the concentration at half-maximal activity (AC50) in experiment [1], in experiment [2], in experiment [3], in experiment [5], in [6] and in experiment [7] was more than 30 µM each time. Also, the AC50 in [8] and in experiment [12] was more than 30 µM each time.
Regarding `Cc1cc(=O)n(-c2ccccc2)n1C` [ANTIPYRINE], the AC50 in experiment [10] is more than 30 µM; in experiment [6] it was more than 30 µM; in [11], more than 30 µM; in experiment [8], more than 30 µM; in experiment [12], more than 30 µM; in [9], more than 10 µM.
With `CO/N=C(\C(=O)N[C@@H]1C(=O)N2C(C(=O)O)=C(CSc3nc(=O)c(=O)[nH]n3C)CS[C@H]12)c1csc(N)n1` [CEFTRIAXONE], the AC50 in experiment [1], in experiment [2], in [3], in experiment [4], in experiment [5] and in [6] was more than 30 µM each time. Also, the concentration at half-maximal activity (AC50) in experiment [7], in experiment [8] and in experiment [12] was more than 30 µM in each case.
As to `C[N+]12CCC(CC1)C(OC(=O)C(O)(c1ccccc1)c1ccccc1)C2` (centres undefined), the half-maximal activity concentration (AC50) was more than 30 µM in [1]; 0.0031 µM in experiment [2]; 0.0019 µM in experiment [3]; more than 30 µM in experiment [4]; more than 30 µM in [6]; more than 30 µM in [7]. The concentration at half-maximal activity (AC50) in [8] and in experiment [12] was more than 30 µM each time.
On to `O=c1[nH]c2ccccc2n1CCCN1CCN(C(c2ccccc2)c2ccccc2)CC1` [OXATOMIDE], for which the AC50 in experiment [1] was 0.034 µM; in experiment [2], 5.8 µM; in [3], 3.5 µM; in experiment [4] it was 1.8 µM; in [6] it was more than 30 µM; in experiment [11] it was 1.2 µM. Besides, the AC50 in experiment [7] is more than 30 µM; in experiment [8], more than 30 µM; in experiment [12], 4.1 µM.
On to `CN1CCN=C(c2ccccc2)c2cc(Cl)ccc21` [MEDAZEPAM], for which the AC50 in experiment [1], in [2], in experiment [3], in experiment [4], in [5] and in [6] was more than 30 µM in each case. The AC50 was more than 30 µM in experiment [7], more than 30 µM in experiment [8] and 19 µM in experiment [12].
For the molecule `CCN1CCCC1CNC(=O)c1cc(S(=O)(=O)CC)ccc1OC` (centres undefined) [SULTOPRIDE], the half-maximal activity concentration (AC50) in experiment [1], in experiment [2], in experiment [3], in experiment [4], in experiment [5] and in [6] was more than 30 µM in each case. Moreover, the concentration at half-maximal activity (AC50) in experiment [7] was 10 µM; in [8], more than 30 µM.
`CCOC(=O)[C@@H](N)Cc1ccc(-c2cc(O[C@H](c3ccc(Cl)cc3-n3ccc(C)n3)C(F)(F)F)nc(N)n2)cc1` [TELOTRISTAT ETHYL]: the concentration at half-maximal activity (AC50) was more than 30 µM in [1]; more than 30 µM in experiment [2]; more than 30 µM in experiment [3]; more than 30 µM in [6]; more than 30 µM in [11]; 29 µM in experiment [7]. Besides, the AC50 in experiment [8] and in experiment [12] was more than 30 µM in each case.
For `COc1cc(N)c(Cl)cc1C(=O)NC1CCN(CCCOc2ccc(F)cc2)CC1OC` (centres undefined) [CISAPRIDE], the AC50 in experiment [5] is more than 10 µM; in experiment [10], more than 30 µM; in [6], more than 30 µM; in [11], more than 30 µM; in experiment [8], more than 30 µM; in [9], 0.593 µM.
In the case of `COc1cc2[nH]c(C)c(CCN3CCN(c4ccccc4)CC3)c2cc1OC` [OXYPERTINE], the half-maximal activity concentration (AC50) in experiment [1] was 1.9 µM; in [2] it was more than 30 µM; in experiment [3], more than 30 µM; in experiment [4] it was more than 30 µM; in experiment [5], 0.15 µM; in experiment [6], more than 30 µM. For the same molecule, the concentration at half-maximal activity (AC50) in experiment [7] is 0.25 µM; in experiment [8], more than 30 µM.
In the case of `CO/N=C(\C(=O)N[C@@H]1C(=O)N2C(C(=O)O)=CCS[C@H]12)c1csc(N)n1` [CEFTIZOXIME], the concentration at half-maximal activity (AC50) in experiment [1], in experiment [2], in [4], in experiment [6], in experiment [8] and in experiment [12] was more than 30 µM each time.
